Converted amounts (≈) assume the structure as drawn.

Data set [1] deals with Fibroblast growth factor receptor 4 (Homo sapiens, UniProt P22455).
Data set [2] can be described thus: Thermodynamic solubility of compound in pH 6.8 phosphate buffer solution incubated overnight on shaker by shake flask based HPLC analysis. In kind it is physicochemical. The following applies: read-out: Therm_solubility.
Data set [3] in a line: Aqueous equilibrium solubility of compound in pH 6.8 phosphate buffer solution incubated overnight by shake flask based high throughput assay. In kind it is physicochemical.

Sequence of Fibroblast growth factor receptor 4 (P22455 whole entry): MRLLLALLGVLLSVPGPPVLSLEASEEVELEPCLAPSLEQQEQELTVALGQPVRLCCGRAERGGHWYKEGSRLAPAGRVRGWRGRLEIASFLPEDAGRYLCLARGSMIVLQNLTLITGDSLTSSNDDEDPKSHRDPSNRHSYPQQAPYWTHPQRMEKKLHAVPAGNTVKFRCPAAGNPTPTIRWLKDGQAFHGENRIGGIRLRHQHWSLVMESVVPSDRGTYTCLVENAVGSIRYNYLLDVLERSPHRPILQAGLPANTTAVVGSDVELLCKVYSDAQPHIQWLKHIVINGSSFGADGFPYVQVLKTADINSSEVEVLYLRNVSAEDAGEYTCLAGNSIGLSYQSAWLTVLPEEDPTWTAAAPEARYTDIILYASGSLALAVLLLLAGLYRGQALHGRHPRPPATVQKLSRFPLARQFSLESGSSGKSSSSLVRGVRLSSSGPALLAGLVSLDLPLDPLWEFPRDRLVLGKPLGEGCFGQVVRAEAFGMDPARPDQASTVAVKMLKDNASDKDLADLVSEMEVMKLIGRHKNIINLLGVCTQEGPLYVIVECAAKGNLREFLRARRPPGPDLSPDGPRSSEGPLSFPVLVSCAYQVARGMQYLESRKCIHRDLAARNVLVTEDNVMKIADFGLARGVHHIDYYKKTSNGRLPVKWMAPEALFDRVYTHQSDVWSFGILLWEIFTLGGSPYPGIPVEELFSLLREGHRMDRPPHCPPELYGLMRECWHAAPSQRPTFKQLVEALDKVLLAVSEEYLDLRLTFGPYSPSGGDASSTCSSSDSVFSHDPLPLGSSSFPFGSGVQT

On to `CN(C(=O)N1CCCc2ccc(C=O)nc21)c1ccc(C(F)(F)F)cn1`, for which the IC50 in data set [1] was over 10 µM.

In the case of `O=Cc1ccc2cccc(C(=O)Nc3ccc(C(F)(F)F)cn3)c2n1`, the figures for the solubility thermodynamic in data set [2] and in data set [3] were under 2.9 µM and under 4 µM, respectively.

On to `O=Cc1ccc2c(n1)N(C(=O)Nc1ccc(C(F)(F)F)cn1)CCC2`, for which the solubility thermodynamic was 4.9 µM (≈ 1.72 µg/mL) in data set [2] and under 4 µM in data set [3].

In data set [3], `CN(C)CCOc1cc(NC(=O)N2CCCc3cccnc32)ncc1C#N` returned a solubility thermodynamic of 173 µM (≈ 63.4 µg/mL).

In turn, `COCCNc1cc(NC(=O)N(CCOC)c2cccc(C=O)n2)ncc1C#N` registered a solubility thermodynamic in data set [3] of over 1000 µM.

Consider `N#Cc1ccc(NC(=O)N2CCCc3ccc(CO)nc32)nc1`, for which the IC50 in data set [1] was over 10 µM.

`CN(C)CCOc1cc(NC(=O)N2CCCc3ccc(C=O)nc32)ncc1C#N` had a solubility thermodynamic in data set [3] of 300 µM (≈ 118 µg/mL).

The term IC50 denotes the concentration needed to halve the response being measured.

The values are drawn from ChEMBL document CHEMBL4251697 (ACS Med Chem Lett, 2018).
